Assay results as given in patent publication US20230072225A1, “CONTROLLED RELEASE COMPOSITION AND METHOD” (DUPONT NUTRITION USA, INC., priority 2014, published 2023).

Assay: Minimum film formation temperature (MFFT) of AquaCoat ECD-30 suspensions, MFFT-bar model 90
Assay type: physicochemical
Details: added at 9% by weight based on ethylcellulose solids
Procedure: The MFFT of such suspensions was tested with MFFT-bar model 90. The MFFT bar was preset and the desired temperature range was selected depending on predicted MFFT value. Ranges 3 (5° C. to 18° C.), 4 (15° C.-33° C.) or range 5 (23° C. to 50° C.) were used in this study. The formulation was applied using a 400 micron cube applicator from warm side to cold side, and the MFFT value was read after the film was formed.
Such compounds were added at a rate of 9% by weight (based on weight of ethylcellulose solids). The compounds evaluated were PGDL (propylene glycol dilaurate; HLB 2)), GMC (glyceryl monocaprylate, HLB 8.3), GML (glyceryl monooleate, HLB 2.8) and TGDS (triglycerol diisosterarate HLB 10-13). […] Sticky residue was found in the formulation even after mixing for extended time. The film on the MFFT bar was not smooth or transparent.

Row | Molecule | Effect on MFFT of the formulation | Compatibility with the formulation
1 | CCCCCCCCCCCC(=O)OCC(C)OC(=O)CCCCCCCCCCC (stereo not drawn) [PGDL, propylene glycol dilaurate] | didn't effectively decrease the MFFT | –
2 | triglycerol diisosterarate [TGDS] | – | didn't have good compatibility with the formulation
3 | CCCCCCCC(=O)OCC(O)CO (stereo not drawn) [GMC, glyceryl monocaprylate] | – | didn't have good compatibility with the formulation
